ChEMBL document CHEMBL4396896, “N-Aminoacyl and N-hydroxyacyl derivatives of diosgenyl 2-amino-2-deoxy-β-d-glucopyranoside: Synthesis, antimicrobial and hemolytic activities” (Bioorg Med Chem, 2019)
Values after ≈ are worked out from the molar mass of the structure shown.

What was measured:
Yarrowia lipolytica = assay: Antifungal activity against Candida lipolytica PCM 2680 incubated in sabouraud liquid medium under aerobic condition for 48 hrs using initial inoculum of 10^3 CFU/ml by serial dilution method; format: functional; settings: PCM 2680, 48 h
[1] = test system: Staphylococcus epidermidis; assay: Antibacterial activity against Staphylococcus epidermidis PCM 2118 incubated in MHB II under aerobic condition for 18 hrs using initial inoculum of 5 x 10^5 CFU/ml by serial dilution method; format: functional; settings: PCM 2118, 18 h
Candida albicans = assay: Antifungal activity against Candida albicans ATCC 10231 incubated in sabouraud liquid medium under aerobic condition for 48 hrs using initial inoculum of 10^3 CFU/ml by serial dilution method; format: functional; settings: ATCC 10231, 48 h
Erythrocyte [2] = assay: Haemolytic activity in human erythrocytes assessed as haemolytic index by measuring hemoglobin release at 0.5 to 128 mg/L incubated for 1 hr by microplate spectrophotometry relative to control; format: ADME, cell-based; settings: erythrocyte, 1 h
Enterococcus faecalis = assay: Antibacterial activity against Enterococcus faecalis ATCC 29212 incubated in MHB II under aerobic condition for 18 hrs using initial inoculum of 5 x 10^5 CFU/ml by serial dilution method; format: functional; settings: ATCC 29212, 18 h
Bacillus subtilis = assay: Antibacterial activity against Bacillus subtilis ATCC 6633 incubated in MHB II under aerobic condition for 18 hrs using initial inoculum of 5 x 10^5 CFU/ml by serial dilution method; format: functional; settings: ATCC 6633, 18 h
Staphylococcus aureus = assay: Antibacterial activity against Staphylococcus aureus ATCC 25923 incubated in MHB II under aerobic condition for 18 hrs using initial inoculum of 5 x 10^5 CFU/ml by serial dilution method; format: functional; settings: ATCC 25923, 18 h
[3] = Haemolytic activity in human erythrocytes assessed as haemolytic index by measuring hemoglobin release at 128 mg/L incubated for 1 hr by microplate spectrophotometry; format: ADME, cell-based, Erythrocyte; settings: read-out: HI
[4] = Haemolytic activity in human erythrocytes assessed as haemolytic index by measuring hemoglobin release at 32 mg/L incubated for 1 hr by microplate spectrophotometry; format: ADME, cell-based, Erythrocyte; settings: read-out: HI
Klebsiella pneumoniae = assay: Antibacterial activity against Klebsiella pneumoniae ATCC 700603 incubated in MHB II under aerobic condition for 18 hrs using initial inoculum of 5 x 10^5 CFU/ml by serial dilution method; format: functional; settings: ATCC 700603, 18 h
Pseudomonas aeruginosa = assay: Antibacterial activity against Pseudomonas aeruginosa ATCC 9027 incubated in MHB II under aerobic condition for 18 hrs using initial inoculum of 5 x 10^5 CFU/ml by serial dilution method; format: functional; settings: ATCC 9027, 18 h
[5] = Haemolytic activity in human erythrocytes assessed as haemolytic index by measuring hemoglobin release at 64 mg/L incubated for 1 hr by microplate spectrophotometry; format: ADME, cell-based, Erythrocyte; settings: read-out: HI
Escherichia coli = assay: Antibacterial activity against Escherichia coli ATCC 25922 incubated in MHB II under aerobic condition for 18 hrs using initial inoculum of 5 x 10^5 CFU/ml by serial dilution method; format: functional; settings: ATCC 25922, 18 h
Proteus mirabilis = assay: Antibacterial activity against Proteus mirabilis PCM 543 incubated in MHB II under aerobic condition for 18 hrs using initial inoculum of 5 x 10^5 CFU/ml by serial dilution method; format: functional; settings: PCM 543, 18 h
Erythrocyte [6] = assay: Haemolytic activity in human erythrocytes assessed as hemoglobin release at 8 to 64 mg/L incubated for 1 hr by microplate spectrophotometry; format: ADME, cell-based

## C[C@@H]1CC[C@@]2(OC1)O[C@H]1C[C@H]3[C@@H]4CC=C5C[C@@H](O[C@@H]6O[C@H](CO)[C@@H](O)[C@H](O)[C@H]6N)CC[C@]5(C)[C@H]4CC[C@]3(C)[C@H]1[C@@H]2C.Cl
Yarrowia lipolytica
  MIC: 1 mg/L
[1]
  MIC: 16 mg/L
Candida albicans
  MIC: 2 mg/L
Erythrocyte [2]
  Activity: Non-Toxic
Enterococcus faecalis
  MIC: 16 mg/L
Bacillus subtilis
  MIC: 8 mg/L
Staphylococcus aureus
  MIC: 16 mg/L

## C[C@@H]1CC[C@@]2(OC1)O[C@H]1C[C@H]3[C@@H]4CC=C5C[C@@H](O[C@@H]6O[C@H](CO)[C@@H](O)[C@H](O)[C@H]6NC(=O)[C@@H]6CCCN6)CC[C@]5(C)[C@H]4CC[C@]3(C)[C@H]1[C@@H]2C
[3]
  hemolysis at 1 h, 128 mg/L: 100%
[1]
  MIC: 4 mg/L (≈ 5.94 µM)
[4]
  hemolysis at 1 h, 32 mg/L: 46%
Klebsiella pneumoniae
  MIC: > 128 mg/L
Enterococcus faecalis
  MIC: 4 mg/L (≈ 5.94 µM)
Bacillus subtilis
  MIC: 8 mg/L (≈ 11.9 µM)
Pseudomonas aeruginosa
  MIC: > 128 mg/L
[5]
  hemolysis at 1 h, 64 mg/L: 100%
Escherichia coli
  MIC: > 128 mg/L
Staphylococcus aureus
  MIC: 4 mg/L (≈ 5.94 µM)
Proteus mirabilis
  MIC: > 128 mg/L

## C[C@@H]1CC[C@@]2(OC1)O[C@H]1C[C@H]3[C@@H]4CC=C5C[C@@H](O[C@@H]6O[C@H](CO)[C@@H](O)[C@H](O)[C@H]6NC(=O)CN)CC[C@]5(C)[C@H]4CC[C@]3(C)[C@H]1[C@@H]2C
Yarrowia lipolytica
  MIC: 64 mg/L (≈ 101 µM)
[3]
  hemolysis at 1 h, 128 mg/L: 16%
[1]
  MIC: 64 mg/L (≈ 101 µM)
Erythrocyte [6]
  Activity: Toxic
Candida albicans
  MIC: 64 mg/L (≈ 101 µM)
Klebsiella pneumoniae
  MIC: > 128 mg/L
Enterococcus faecalis
  MIC: 64 mg/L (≈ 101 µM)
Bacillus subtilis
  MIC: 64 mg/L (≈ 101 µM)
Pseudomonas aeruginosa
  MIC: > 128 mg/L
Escherichia coli
  MIC: > 128 mg/L
Staphylococcus aureus
  MIC: 64 mg/L (≈ 101 µM)
Proteus mirabilis
  MIC: > 128 mg/L
